Values quoted from earlier work in patent US20070190095A1, “Coffee and its derivatives as an animal repellent composition and its use in a molluscicide bait” (priority 2006, published 2007).

Test system: snails
Settings: 2% solution of caffeine in water sprayed on coconut husk-chip material in which orchids are grown

For `Cn1c(=O)c2c(ncn2C)n(C)c1=O` [caffeine, Caffeine], the snails killed is listed as 95%.
